Values joined by “and” are separate entries in the source; they are usually repeats but may differ in a detail not shown here. Identical values can stand only once. Toxic doses and inconclusive results are not listed.
Test system: CD2F1 mice, L1210 leukemia ip, survival T/C
Assay: NCI In Vivo Anticancer Drug Screen. Data for tumor model L1210 Leukemia (intraperitoneal) in CD2F1 (CDF1) mice
Settings: higher = longer survival
How it was run: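 Mice carrying a transplanted tumor received test compound or vehicle alone. The value is the measurement in the treated group divided by that in the vehicle-treated control group.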

[1] = endpoint: mean survival time, dose: 50.0 mg/kg/injection, schedule: Q01DX009 (ip), vehicle: saline with Tween-80
[2] = endpoint: mean survival time, dose: 100.0 mg/kg/injection, schedule: Q01DX009 (ip), vehicle: saline with Tween-80
[3] = endpoint: mean survival time, dose: 100.0 mg/kg/injection, schedule: Q04DX003 (ip), vehicle: saline with Tween-80
[4] = endpoint: mean survival time, dose: 200.0 mg/kg/injection, schedule: Q04DX003 (ip), vehicle: saline with Tween-80
[5] = endpoint: mean survival time, dose: 50.0 mg/kg/injection, schedule: Q04DX002 (ip), vehicle: saline with Tween-80
[6] = endpoint: mean survival time, dose: 100.0 mg/kg/injection, schedule: Q04DX002 (ip), vehicle: saline with Tween-80
[7] = endpoint: mean survival time, dose: 400.0 mg/kg/injection, schedule: Q04DX003 (ip), vehicle: saline with Tween-80
[8] = endpoint: mean survival time, dose: 25.0 mg/kg/injection, schedule: Q04DX002 (ip), vehicle: saline with Tween-80

## O=C1C=C(c2ccccc2)CC1
[1]
  T/C: 104 % of control
[2]
  T/C: 93 % of control
[3]
  T/C: 101 % of control
[4]
  T/C: 100 % of control

## CCOC(=O)C1(Cc2ccccc2)SCCCS1
[5]
  T/C: 105 % of control
[6]
  T/C: 105 % of control
endpoint: mean survival time, dose: 200.0 mg/kg/injection, schedule: Q04DX002 (ip), vehicle: saline with Tween-80
  T/C: 105 % of control

## O=C(Nc1ccccc1)C(Cl)Cl
[3]
  T/C: 103 % of control
[4]
  T/C: 103 % of control
[7]
  T/C: 97 % of control

## O=c1ccn2c(n1)OC1CC2OC1COC(c1ccccc1)(c1ccccc1)c1ccccc1 (configuration not stated)
endpoint: median survival time, dose: 12.5 mg/kg/injection, schedule: Q01DX005 (ip), vehicle: saline with Tween-80
  T/C: 102 % of control
endpoint: median survival time, dose: 25.0 mg/kg/injection, schedule: Q01DX005 (ip), vehicle: saline with Tween-80
  T/C: 96 % of control
endpoint: median survival time, dose: 50.0 mg/kg/injection, schedule: Q01DX005 (ip), vehicle: saline with Tween-80
  T/C: 95 % of control
endpoint: median survival time, dose: 100.0 mg/kg/injection, schedule: Q01DX005 (ip), vehicle: saline with Tween-80
  T/C: 95 % of control
endpoint: median survival time, dose: 200.0 mg/kg/injection, schedule: Q01DX005 (ip), vehicle: saline with Tween-80
  T/C: 98 % of control

## CCC(CNCCCCCC(=O)O)(C(=O)O)C(=O)O
endpoint: mean survival time, dose: 12.5 mg/kg/injection, schedule: Q04DX002 (ip), vehicle: saline with Tween-80
  T/C: 90 % of control
[8]
  T/C: 98 % of control
[5]
  T/C: 94 % of control

## CCSc1ncc(Br)c(Sc2nc(N)nc3nc[nH]c23)n1
endpoint: mean survival time, dose: 6.25 mg/kg/injection, schedule: Q01DX Z (ip), vehicle: carboxymethylcellulose (CMC)
  T/C: 154 % of control
endpoint: mean survival time, dose: 12.5 mg/kg/injection, schedule: Q01DX Z (ip), vehicle: carboxymethylcellulose (CMC)
  T/C: 100 % of control
endpoint: mean survival time, dose: 25.0 mg/kg/injection, schedule: Q01DX Z (ip), vehicle: carboxymethylcellulose (CMC)
  T/C: 98 % of control
endpoint: mean survival time, dose: 50.0 mg/kg/injection, schedule: Q01DX Z (ip), vehicle: carboxymethylcellulose (CMC)
  T/C: 87 % of control

## O=C(CBr)N1c2ccccc2Sc2ccc(C(F)(F)F)cc21
endpoint: mean survival time, dose: 1.56 mg/kg/injection, schedule: Q01DX009 (ip), vehicle: other
  T/C: 100 % of control
endpoint: mean survival time, dose: 3.13 mg/kg/injection, schedule: Q01DX009 (ip), vehicle: other
  T/C: 97 % of control
endpoint: mean survival time, dose: 6.25 mg/kg/injection, schedule: Q01DX009 (ip), vehicle: other
  T/C: 102 % of control
endpoint: mean survival time, dose: 12.5 mg/kg/injection, schedule: Q01DX009 (ip), vehicle: other
  T/C: 96 % of control
endpoint: mean survival time, dose: 25.0 mg/kg/injection, schedule: Q01DX009 (ip), vehicle: other
  T/C: 102 % of control

## C/C=C/C=C/c1cc2cc3c(c(O)c2c(=O)[nH]1)C1(CC3)C(O)=c2c(=O)c3c(=O)cc(OC)c(=O)c=3c(=O)c2=C1O (configuration not stated)
endpoint: mean survival time, dose: 0.06 mg/kg/injection, schedule: Q01DX009 (ip), vehicle: DMSO
  T/C: 90 % of control and 93 % of control and 108 % of control
endpoint: mean survival time, dose: 0.06 mg/kg/injection, schedule: Q01DX009 (ip), vehicle: Klucel (hydroxypropylcellulose) (HPC)
  T/C: 97 % of control
endpoint: mean survival time, dose: 0.12 mg/kg/injection, schedule: Q01DX009 (ip), vehicle: DMSO
  T/C: 113 % of control and 107 % of control
endpoint: mean survival time, dose: 0.12 mg/kg/injection, schedule: Q01DX009 (ip), vehicle: Klucel (hydroxypropylcellulose) (HPC)
  T/C: 98 % of control
endpoint: mean survival time, dose: 0.25 mg/kg/injection, schedule: Q01DX009 (ip), vehicle: DMSO
  T/C: 118 % of control
endpoint: mean survival time, dose: 0.25 mg/kg/injection, schedule: Q01DX009 (ip), vehicle: Klucel (hydroxypropylcellulose) (HPC)
  T/C: 98 % of control
endpoint: mean survival time, dose: 0.5 mg/kg/injection, schedule: Q01DX009 (ip), vehicle: DMSO
  T/C: 94 % of control
endpoint: mean survival time, dose: 0.5 mg/kg/injection, schedule: Q01DX009 (ip), vehicle: Klucel (hydroxypropylcellulose) (HPC)
  T/C: 98 % of control
endpoint: mean survival time, dose: 1.0 mg/kg/injection, schedule: Q01DX009 (ip), vehicle: Klucel (hydroxypropylcellulose) (HPC)
  T/C: 98 % of control
endpoint: mean survival time, dose: 2.0 mg/kg/injection, schedule: Q01DX009 (ip), vehicle: Klucel (hydroxypropylcellulose) (HPC)
  T/C: 104 % of control
endpoint: median survival time, dose: 0.03 mg/kg/injection, schedule: Q01DX009 (ip), vehicle: DMSO
  T/C: 89 % of control

## Cc1ccc(CCF)cc1
endpoint: mean survival time, dose: 100.0 mg/kg/injection, schedule: Q01DX001 (ip), vehicle: saline with Tween-80
  T/C: 107 % of control
endpoint: mean survival time, dose: 200.0 mg/kg/injection, schedule: Q01DX001 (ip), vehicle: saline with Tween-80
  T/C: 109 % of control

## CCOC(=O)c1cc(-c2ccc(Cl)cc2)nc2c1ccc1ccccc12
endpoint: mean survival time, dose: 100.0 mg/kg/injection, schedule: Q01DX001 (ip), vehicle: saline
  T/C: 100 % of control
endpoint: mean survival time, dose: 200.0 mg/kg/injection, schedule: Q01DX001 (ip), vehicle: saline
  T/C: 96 % of control
endpoint: mean survival time, dose: 400.0 mg/kg/injection, schedule: Q01DX001 (ip), vehicle: saline
  T/C: 108 % of control

## O=C(O)CCC(NC(=O)COc1ccc(Cl)cc1Cl)C(=O)O (configuration not stated)
[8]
  T/C: 100 % of control
[5]
  T/C: 95 % of control
[6]
  T/C: 100 % of control and 101 % of control
endpoint: mean survival time, dose: 400.0 mg/kg/injection, schedule: Q04DX002 (ip), vehicle: saline with Tween-80
  T/C: 93 % of control

## CCOC(=O)C1=C(C)NC(C)=C(C(=O)OCC)C1Cc1ccccc1
endpoint: mean survival time, dose: 100.0 mg/kg/injection, schedule: Q01DX009 (ip), vehicle: other
  T/C: 106 % of control
endpoint: mean survival time, dose: 200.0 mg/kg/injection, schedule: Q01DX009 (ip), vehicle: other
  T/C: 98 % of control
endpoint: mean survival time, dose: 400.0 mg/kg/injection, schedule: Q01DX009 (ip), vehicle: other
  T/C: 104 % of control

## [I][Pt+2][I].[NH-]c1cccc(F)c1.[NH-]c1cccc(F)c1
endpoint: mean survival time, dose: 3.13 mg/kg/injection, schedule: Q04DX003 (ip), vehicle: distilled water + Tween-80
  T/C: 102 % of control
endpoint: mean survival time, dose: 6.25 mg/kg/injection, schedule: Q04DX003 (ip), vehicle: distilled water + Tween-80
  T/C: 102 % of control
endpoint: mean survival time, dose: 12.5 mg/kg/injection, schedule: Q04DX003 (ip), vehicle: distilled water + Tween-80
  T/C: 106 % of control
endpoint: mean survival time, dose: 25.0 mg/kg/injection, schedule: Q04DX003 (ip), vehicle: distilled water + Tween-80
  T/C: 106 % of control
endpoint: mean survival time, dose: 50.0 mg/kg/injection, schedule: Q04DX003 (ip), vehicle: distilled water + Tween-80
  T/C: 112 % of control
endpoint: mean survival time, dose: 100.0 mg/kg/injection, schedule: Q04DX003 (ip), vehicle: distilled water + Tween-80
  T/C: 118 % of control

## Nc1ccccc1SC(CC(=O)c1ccccc1)c1ccc2c(c1)OCO2 (configuration not stated)
[2]
  T/C: 95 % of control
endpoint: mean survival time, dose: 200.0 mg/kg/injection, schedule: Q01DX009 (ip), vehicle: saline with Tween-80
  T/C: 93 % of control
endpoint: mean survival time, dose: 400.0 mg/kg/injection, schedule: Q01DX009 (ip), vehicle: saline with Tween-80
  T/C: 100 % of control

## Cn1c(=O)c2c(nc(N3CCOCC3)n2CCCNCC(O)c2ccc(O)cc2)n(C)c1=O (configuration not stated)
endpoint: mean survival time, dose: 12.5 mg/kg/injection, schedule: Q01DX005 (ip), vehicle: water
  T/C: 102 % of control
endpoint: mean survival time, dose: 25.0 mg/kg/injection, schedule: Q01DX005 (ip), vehicle: water
  T/C: 104 % of control
endpoint: mean survival time, dose: 50.0 mg/kg/injection, schedule: Q01DX005 (ip), vehicle: water
  T/C: 100 % of control
endpoint: mean survival time, dose: 100.0 mg/kg/injection, schedule: Q01DX005 (ip), vehicle: water
  T/C: 98 % of control
endpoint: mean survival time, dose: 200.0 mg/kg/injection, schedule: Q01DX005 (ip), vehicle: water
  T/C: 104 % of control

## CCC(C)NCCO (configuration not stated)
endpoint: mean survival time, dose: 75.0 mg/kg/injection, schedule: Q01DX001 (ip), vehicle: saline
  T/C: 96 % of control
endpoint: mean survival time, dose: 150.0 mg/kg/injection, schedule: Q01DX001 (ip), vehicle: saline
  T/C: 104 % of control
endpoint: mean survival time, dose: 300.0 mg/kg/injection, schedule: Q01DX001 (ip), vehicle: saline
  T/C: 104 % of control

## [Co].[NH-]CC[NH-].[NH-]CC[NH-].[NH-]CC[NH-]
endpoint: mean survival time, dose: 25.0 mg/kg/injection, schedule: Q01DX009 (ip), vehicle: saline with Tween-80
  T/C: 93 % of control
[1]
  T/C: 101 % of control
[2]
  T/C: 110 % of control
endpoint: mean survival time, dose: 100.0 mg/kg/injection, schedule: Q04DX003 (ip), vehicle: saline sonified
  T/C: 104 % of control

## C=CC[N+]12CC=C(CO)C1C(O)CC2 (configuration not stated)
endpoint: mean survival time, dose: 100.0 mg/kg/injection, schedule: Q04DX002 (ip), vehicle: saline
  T/C: 101 % of control
endpoint: mean survival time, dose: 200.0 mg/kg/injection, schedule: Q04DX002 (ip), vehicle: saline
  T/C: 104 % of control
endpoint: mean survival time, dose: 400.0 mg/kg/injection, schedule: Q04DX002 (ip), vehicle: saline
  T/C: 97 % of control

## O=C(O)CCc1c[nH]c2ccccc12
[3]
  T/C: 98 % of control
[4]
  T/C: 102 % of control
[7]
  T/C: 108 % of control

## CSc1nn(C2OC(COC(=O)c3ccccc3)C(OC(=O)c3ccccc3)C2OC(=O)c2ccccc2)c(=O)[nH]c1=O (configuration not stated)
endpoint: mean survival time, dose: 12.5 mg/kg/injection, schedule: Q01DX005 (ip), vehicle: distilled water + Tween-80
  T/C: 98 % of control
endpoint: mean survival time, dose: 25.0 mg/kg/injection, schedule: Q01DX005 (ip), vehicle: distilled water + Tween-80
  T/C: 93 % of control
endpoint: mean survival time, dose: 50.0 mg/kg/injection, schedule: Q01DX005 (ip), vehicle: distilled water + Tween-80
  T/C: 97 % of control
endpoint: mean survival time, dose: 100.0 mg/kg/injection, schedule: Q01DX005 (ip), vehicle: distilled water + Tween-80
  T/C: 93 % of control
endpoint: mean survival time, dose: 200.0 mg/kg/injection, schedule: Q01DX005 (ip), vehicle: distilled water + Tween-80
  T/C: 95 % of control
